Values of other authors in patent US8109913B2, “Coiled wire for the controlled release of drugs to the eye” (DSM IP Assets B.V., priority 2005, dated 2012).

Key:
[1] = in vivo, device loaded with atropine
[2] = in vitro

SMILES | Mydriasis [1] | Activity of the drug when released from the coating [2]
CN1[C@@H]2CC[C@H]1C[C@@H](OC(=O)C(CO)c1ccccc1)C2 (some centres unmarked) [atropine] | mydriasis can be obtained | –
N#Cc1c(N2C[C@@H]3CCCN[C@@H]3C2)c(F)cc2c(=O)c(C(=O)O)cn(C3CC3)c12 [pradofloxacin] | – | still active
